The source made the active and inactive calls.
How the values were obtained:
Estrogen receptor = target: T1, Estrogen receptor (Homo sapiens, UniProt P03372);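 further: potency for inhibiting coactivator peptide recruitment to the receptor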
T1 sequence (P03372 whole entry): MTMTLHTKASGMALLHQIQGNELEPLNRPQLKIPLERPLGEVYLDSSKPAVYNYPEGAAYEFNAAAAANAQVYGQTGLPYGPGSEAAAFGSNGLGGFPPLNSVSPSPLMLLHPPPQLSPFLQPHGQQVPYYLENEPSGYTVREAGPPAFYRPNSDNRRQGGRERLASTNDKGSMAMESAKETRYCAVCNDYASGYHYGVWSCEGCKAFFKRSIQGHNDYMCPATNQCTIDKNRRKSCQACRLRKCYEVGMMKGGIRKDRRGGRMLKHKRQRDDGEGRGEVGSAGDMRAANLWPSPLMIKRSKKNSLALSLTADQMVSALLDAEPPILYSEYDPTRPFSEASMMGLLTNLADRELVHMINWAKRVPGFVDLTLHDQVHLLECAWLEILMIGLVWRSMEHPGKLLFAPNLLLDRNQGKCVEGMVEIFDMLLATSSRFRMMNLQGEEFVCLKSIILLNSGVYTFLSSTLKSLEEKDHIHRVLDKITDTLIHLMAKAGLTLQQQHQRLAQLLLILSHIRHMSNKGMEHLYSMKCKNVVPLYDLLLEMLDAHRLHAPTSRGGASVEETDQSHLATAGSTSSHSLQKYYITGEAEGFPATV

Estrogen receptor beta [1] = target: T2, Estrogen receptor beta (Homo sapiens, UniProt Q92731);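 further: recombinant ER-beta bound to coactivator SRC1 peptide in presence of estradiol agonist; inhibitors block coactivator peptide binding and lower the FRET signal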
T2 sequence (Q92731 whole entry): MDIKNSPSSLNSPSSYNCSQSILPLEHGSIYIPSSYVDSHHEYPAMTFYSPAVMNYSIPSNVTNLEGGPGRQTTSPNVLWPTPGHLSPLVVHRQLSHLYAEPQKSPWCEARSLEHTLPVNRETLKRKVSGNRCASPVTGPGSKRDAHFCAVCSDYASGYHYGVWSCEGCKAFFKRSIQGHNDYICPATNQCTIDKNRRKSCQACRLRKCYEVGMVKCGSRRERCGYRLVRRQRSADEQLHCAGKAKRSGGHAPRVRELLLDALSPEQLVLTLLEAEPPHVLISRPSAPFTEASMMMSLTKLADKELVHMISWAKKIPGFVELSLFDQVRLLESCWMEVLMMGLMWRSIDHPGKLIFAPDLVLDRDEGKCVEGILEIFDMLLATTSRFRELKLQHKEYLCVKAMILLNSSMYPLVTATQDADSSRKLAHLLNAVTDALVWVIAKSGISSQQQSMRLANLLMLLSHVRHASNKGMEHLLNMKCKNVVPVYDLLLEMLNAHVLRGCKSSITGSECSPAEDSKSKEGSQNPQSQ

Estrogen receptor beta [2] = target: T2, Estrogen receptor beta; test: ERβ–SRC-3 coactivator interaction inhibitors, confirmation, orthogonal assay, biochemical, ELISA, streptavidin-HRP readout (AID 1060)
Protein Tat = target: T3, Protein Tat (Human immunodeficiency virus type 1 group M subtype B (isolate HXB2)(HIV-1), UniProt P04608); assay type: functional;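 further: tat binding to TAR RNA read out by fluorescence polarization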
T3 sequence (P04608 whole entry): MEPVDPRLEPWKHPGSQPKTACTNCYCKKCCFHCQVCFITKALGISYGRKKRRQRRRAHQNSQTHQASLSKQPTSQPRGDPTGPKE

[3] = M. tuberculosis H37Rv growth inhibitors, H37Rv strain (AID 1626); assay type: functional
[4] = Luminescence Cell-Based Dose Confirmation HTS to Identify Activators of 5'UTR Stem-Loop Driven Alpha-Synuclein mRNA Translation in H4 Neuroglioblastoma Cells. [Related pubchem assays: 1829 (Project Summary), 1814 (Primary HTS)]; assay type: functional
[5] = Luminescence Cell-Based Dose Response HTS to Identify Activators of Luciferase Translation or Activity in H4 […] Cells. [Related pubchem assays: 1829 (Project Summary), 1814 (Primary HTS)]; assay type: functional
H4 = test: Luminescence Cell-Based Dose Response HTS to Identify Activators of 5'UTR Stem-Loop Driven Prion Protein mRNA Translation in H4 Neuroglioblastoma Cells. [Related pubchem assays: 1829 (Project Summary), 1814 (Primary HTS)]; assay type: functional; settings: Homo sapiens
Ephrin type-A receptor 4 = Ephrin type-A receptor 4 (Mus musculus, UniProt Q03137); test: inhibitors of EphA4 binding to KYL peptide, primary screen, biochemical, colorimetric, mouse EphA4 (AID 689); assay type: functional
Chain of Ephrin type-A receptor 4 (Q03137 whole entry): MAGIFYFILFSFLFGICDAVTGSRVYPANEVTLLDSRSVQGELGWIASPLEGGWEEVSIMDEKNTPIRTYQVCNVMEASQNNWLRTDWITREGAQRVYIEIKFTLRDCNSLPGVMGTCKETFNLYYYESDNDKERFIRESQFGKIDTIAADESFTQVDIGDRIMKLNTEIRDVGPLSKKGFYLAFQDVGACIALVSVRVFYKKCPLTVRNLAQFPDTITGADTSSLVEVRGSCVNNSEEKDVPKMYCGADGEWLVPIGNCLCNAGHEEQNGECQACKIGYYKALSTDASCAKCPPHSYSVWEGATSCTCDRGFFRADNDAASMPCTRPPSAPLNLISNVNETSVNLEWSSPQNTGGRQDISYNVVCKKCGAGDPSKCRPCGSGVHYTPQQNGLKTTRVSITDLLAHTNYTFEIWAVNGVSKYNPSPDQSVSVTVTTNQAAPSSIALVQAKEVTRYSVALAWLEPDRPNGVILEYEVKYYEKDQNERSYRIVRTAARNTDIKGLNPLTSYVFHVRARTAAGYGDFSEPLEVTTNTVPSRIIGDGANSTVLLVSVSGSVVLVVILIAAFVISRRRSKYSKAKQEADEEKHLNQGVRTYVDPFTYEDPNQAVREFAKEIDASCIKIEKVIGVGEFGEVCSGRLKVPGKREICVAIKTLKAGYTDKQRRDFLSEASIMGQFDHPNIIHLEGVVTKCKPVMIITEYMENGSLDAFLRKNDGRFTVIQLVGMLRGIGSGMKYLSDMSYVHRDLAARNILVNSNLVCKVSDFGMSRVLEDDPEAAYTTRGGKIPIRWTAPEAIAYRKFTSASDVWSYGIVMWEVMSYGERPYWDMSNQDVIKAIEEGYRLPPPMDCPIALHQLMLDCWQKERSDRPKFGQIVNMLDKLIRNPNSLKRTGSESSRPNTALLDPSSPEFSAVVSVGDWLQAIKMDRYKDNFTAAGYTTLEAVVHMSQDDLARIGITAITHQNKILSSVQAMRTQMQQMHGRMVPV

[6] = target: Induced myeloid leukemia cell differentiation protein Mcl-1 (Homo sapiens, UniProt Q07820); assay type: functional
Chain of Induced myeloid leukemia cell differentiation protein Mcl-1 (Q07820 whole entry): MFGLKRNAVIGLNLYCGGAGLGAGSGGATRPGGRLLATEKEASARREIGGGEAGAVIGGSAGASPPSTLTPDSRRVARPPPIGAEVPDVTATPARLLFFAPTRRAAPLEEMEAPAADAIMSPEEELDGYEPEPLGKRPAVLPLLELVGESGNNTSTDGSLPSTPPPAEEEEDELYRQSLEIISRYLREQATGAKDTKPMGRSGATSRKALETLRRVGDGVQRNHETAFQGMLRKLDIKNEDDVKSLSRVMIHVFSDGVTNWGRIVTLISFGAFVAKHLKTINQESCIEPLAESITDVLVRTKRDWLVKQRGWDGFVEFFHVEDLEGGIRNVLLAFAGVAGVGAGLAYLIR

[7] = target: Heat shock protein HSP 90-alpha (Homo sapiens, UniProt P07900); assay type: functional, organism-based
[8] = target: Sphingosine 1-phosphate receptor 2 (Homo sapiens, UniProt O95136); test: Dose Response Cell Based Assay for Agonists of the S1P2 Receptor. [Related pubchem assays: 729, 736, 843 ]; assay type: functional
Chain of Sphingosine 1-phosphate receptor 2 (O95136 whole entry): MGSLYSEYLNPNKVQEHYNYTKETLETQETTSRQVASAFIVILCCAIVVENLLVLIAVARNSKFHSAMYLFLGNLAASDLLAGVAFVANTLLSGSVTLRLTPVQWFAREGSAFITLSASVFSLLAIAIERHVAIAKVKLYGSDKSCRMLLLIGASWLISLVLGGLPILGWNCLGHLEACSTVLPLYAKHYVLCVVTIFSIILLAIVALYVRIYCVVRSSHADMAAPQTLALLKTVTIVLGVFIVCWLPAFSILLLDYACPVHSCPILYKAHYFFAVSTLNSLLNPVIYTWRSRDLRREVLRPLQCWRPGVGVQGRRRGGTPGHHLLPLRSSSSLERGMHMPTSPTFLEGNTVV

[9] = M. tuberculosis growth inhibition, HTS (AID 449762); assay type: functional
[10] = inhibitors of intracellular T. cruzi replication, confirmation, NIH3T3 host cells, beta-gal luminescence (AID 2044); assay type: functional, cell-based;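 further: intracellular parasites grown in NIH/3T3 mouse fibroblasts as host cells; luminescent beta-galactosidase reporter signal from transgenic T. cruzi replicating inside host cells; inhibitors lower the luminescence signal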
[11] = microbe, parasite or virus in culture; assay type: functional; settings: Mycobacterium tuberculosis
[12] = cytotoxicity toward NIH3T3 fibroblasts, dose response, counter-screen, cell-based, ATP luminescence, mouse fibroblasts (AID 2010); assay type: functional;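 further: cells exposed to compound for about 90 hours before reading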
Cytochrome P450 3A4 = Cytochrome P450 3A4 (Homo sapiens, UniProt P08684);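 further: CYP3A4 tested as one member of a cytochrome P450 panel screen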
Chain of Cytochrome P450 3A4 (P08684 whole entry): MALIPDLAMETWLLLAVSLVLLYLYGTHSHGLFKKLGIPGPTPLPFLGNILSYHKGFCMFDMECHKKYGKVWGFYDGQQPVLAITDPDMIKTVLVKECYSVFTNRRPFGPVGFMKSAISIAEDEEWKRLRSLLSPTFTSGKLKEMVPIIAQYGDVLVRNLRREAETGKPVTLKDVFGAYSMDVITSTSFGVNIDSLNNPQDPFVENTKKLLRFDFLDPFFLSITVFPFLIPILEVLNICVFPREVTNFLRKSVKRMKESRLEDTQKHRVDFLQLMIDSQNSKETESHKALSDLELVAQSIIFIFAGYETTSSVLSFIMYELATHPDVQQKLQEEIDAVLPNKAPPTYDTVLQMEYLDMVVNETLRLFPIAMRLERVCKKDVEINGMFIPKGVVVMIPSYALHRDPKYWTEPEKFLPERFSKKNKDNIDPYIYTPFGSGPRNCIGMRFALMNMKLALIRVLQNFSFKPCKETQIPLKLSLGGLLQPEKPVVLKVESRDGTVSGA

[13] = target: 5-hydroxytryptamine receptor 1A (Homo sapiens, UniProt P08908); assay type: functional
Chain of 5-hydroxytryptamine receptor 1A (P08908 whole entry): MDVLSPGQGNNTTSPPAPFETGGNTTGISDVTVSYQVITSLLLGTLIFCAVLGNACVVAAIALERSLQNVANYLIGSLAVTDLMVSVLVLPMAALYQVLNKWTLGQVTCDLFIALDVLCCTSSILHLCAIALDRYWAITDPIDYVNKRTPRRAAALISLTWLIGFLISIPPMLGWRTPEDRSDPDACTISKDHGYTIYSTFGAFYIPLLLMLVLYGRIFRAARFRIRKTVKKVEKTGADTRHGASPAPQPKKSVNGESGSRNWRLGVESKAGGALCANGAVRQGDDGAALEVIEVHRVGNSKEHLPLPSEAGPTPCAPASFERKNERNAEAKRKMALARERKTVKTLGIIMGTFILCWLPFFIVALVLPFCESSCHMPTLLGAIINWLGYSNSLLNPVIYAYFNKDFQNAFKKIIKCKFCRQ

[14] = target: T4, Short transient receptor potential channel 4 (Mus musculus, UniProt Q9QUQ5); test: mouse TRPC4 channel activators, dose response, cell-based, HEK293 TRPC4/mu-opioid, Fluo-4 calcium (AID 434937); assay type: functional
T4 sequence (Q9QUQ5 whole entry): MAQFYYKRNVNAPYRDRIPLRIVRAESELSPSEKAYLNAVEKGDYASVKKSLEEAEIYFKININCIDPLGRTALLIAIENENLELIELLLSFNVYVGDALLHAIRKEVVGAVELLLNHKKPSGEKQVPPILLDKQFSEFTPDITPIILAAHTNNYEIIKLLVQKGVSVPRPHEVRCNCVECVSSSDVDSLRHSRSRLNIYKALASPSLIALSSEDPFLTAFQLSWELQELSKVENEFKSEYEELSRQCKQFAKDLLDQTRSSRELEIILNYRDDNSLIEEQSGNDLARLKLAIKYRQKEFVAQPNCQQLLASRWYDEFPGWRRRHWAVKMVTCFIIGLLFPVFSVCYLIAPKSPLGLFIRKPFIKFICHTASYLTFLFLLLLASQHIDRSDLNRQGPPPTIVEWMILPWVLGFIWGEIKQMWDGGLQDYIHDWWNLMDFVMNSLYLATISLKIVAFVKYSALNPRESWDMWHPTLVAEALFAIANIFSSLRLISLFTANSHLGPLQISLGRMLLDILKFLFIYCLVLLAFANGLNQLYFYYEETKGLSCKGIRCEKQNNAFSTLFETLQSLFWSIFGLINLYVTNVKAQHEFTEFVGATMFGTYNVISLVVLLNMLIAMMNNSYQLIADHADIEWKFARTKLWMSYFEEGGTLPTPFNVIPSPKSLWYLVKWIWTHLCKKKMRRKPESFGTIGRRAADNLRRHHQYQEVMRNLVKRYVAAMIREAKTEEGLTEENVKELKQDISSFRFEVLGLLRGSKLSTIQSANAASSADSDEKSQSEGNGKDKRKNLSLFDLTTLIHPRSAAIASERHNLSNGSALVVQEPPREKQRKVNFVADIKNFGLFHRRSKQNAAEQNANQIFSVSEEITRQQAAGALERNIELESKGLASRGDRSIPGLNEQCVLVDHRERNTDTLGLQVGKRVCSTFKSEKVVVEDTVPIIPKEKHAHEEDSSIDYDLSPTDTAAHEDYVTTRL

[15] = target: Mitogen-activated protein kinase 10 (Homo sapiens, UniProt P53779); test: Dose response biochemical screening assay for inhibitors of c-Jun N-Terminal Kinase 3 (JNK3). [Related pubchem assays: 746 ]
Chain of Mitogen-activated protein kinase 10 (P53779 whole entry): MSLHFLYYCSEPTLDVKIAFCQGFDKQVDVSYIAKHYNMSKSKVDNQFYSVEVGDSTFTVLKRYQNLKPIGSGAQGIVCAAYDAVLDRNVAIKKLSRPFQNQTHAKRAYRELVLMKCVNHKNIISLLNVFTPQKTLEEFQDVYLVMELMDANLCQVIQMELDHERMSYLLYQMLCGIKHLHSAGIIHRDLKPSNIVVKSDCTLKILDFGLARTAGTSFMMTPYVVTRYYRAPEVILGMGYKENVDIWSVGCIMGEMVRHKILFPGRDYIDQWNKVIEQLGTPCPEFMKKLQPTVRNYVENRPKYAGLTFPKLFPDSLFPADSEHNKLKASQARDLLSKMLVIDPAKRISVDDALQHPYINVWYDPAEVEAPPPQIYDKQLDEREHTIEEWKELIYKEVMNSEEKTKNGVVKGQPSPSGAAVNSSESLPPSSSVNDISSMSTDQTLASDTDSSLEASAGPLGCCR

With `Cc1noc(C)c1COc1ccc(C(=O)OCC(=O)N2c3ccccc3NC(=O)C2(C)C)cc1` the IC50 (Estrogen receptor) was 8.74 µM (active), the IC50 (Estrogen receptor beta [1]) was 2.72 µM (active) and the IC50 (Estrogen receptor beta [2]) was 3.98 µM (not active). The IC50 (Protein Tat) was > 100 µM (inconclusive).
In the case of `COc1ccc(NC(=O)CCCSc2ccccc2)cc1`, the IC50 [3] is reported as > 100 µM (active) and the IC50 (Protein Tat) is reported as > 100 µM (active).
With `CCOC(=O)c1c(C)oc2c1c(C(c1cccnc1)N1CCOCC1)c(O)c1ccccc12` (configuration not stated) the EC50 [4] was 12.5 µM (active), the EC50 [5] was 106 µM (active) and the EC50 (H4) was > 120 µM (not active). For the same molecule, the IC50 (Ephrin type-A receptor 4) was 3.58 µM (active), the IC50 [6] was 1.17 µM (active) and the AC50 [7] was 8.43 µM (active).
In the case of `N#CCN1CCN(CC(=O)Nc2cccc3ccccc23)CC1`, the EC50 [8] is reported as > 50 µM (not active).
For `Cc1ccccc1C1C(C#N)=C2N=C(N)c3c(sc4c3CCCCC4)N2C2=C1C(=O)CC(C)(C)C2` (configuration not stated), the IC50 [9] was > 100 µM (active), the EC50 [10] was 1.52 µM (active) and the CC50 [11] was 33.1 µM (active). For the same molecule, the EC50 [12] was > 60 µM (inconclusive) and the AC50 (Cytochrome P450 3A4) was 1.12 µM (inconclusive).
In the case of `c1ccc2sc(C3CCCNC3)nc2c1` (configuration not stated), the EC50 [13] is reported as > 50 µM (not active) and the EC50 [14] is reported as 0.0093 µM (active).
With `COc1ccc2c(c1)c1ncn(Cc3ccco3)c(=O)c1n2C` the IC50 [15] was 90 µM (not active).
With `Cc1[nH]c2c(C(F)(F)F)cccc2c1CCN` the EC50 [13] was > 50 µM (not active).
